Measured values published in US10597388B2, “Pyridazinone herbicides” (FMC CORPORATION, priority 2014, dated 2020).

What was measured:
Assay type in all cases: in vivo
[1] = tested on: barnyardgrass (Echinochloa crus-galli); assay: Test B flooded paddy test; details: Echinochloa crus-galli, 360 h; 250 g ai/ha, Flood; visual rating on scale of 0 to 100 where 0 is no effect and 100 is complete control; 13 to 15 d after treatment; read-out: Plant response rating, Barnyardgrass
In short: (§1)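 Plants grown to the 2-leaf stage. At treatment, pots were flooded to 3 cm above the soil, compound was applied directly to the paddy water, and that depth was held throughout. After 13 to 15 d in the greenhouse, response was rated visually against controls on a 0 (no effect) to 100 (complete control) scale.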

[2] = tested on: ducksalad (Heteranthera limosa); assay: Test B flooded paddy test; details: Heteranthera limosa, 360 h; 250 g ai/ha, Flood; visual rating on scale of 0 to 100 where 0 is no effect and 100 is complete control; 13 to 15 d after treatment; read-out: Plant response rating, Ducksalad
In short: as §1

rice (Oryza sativa) = assay: Test B flooded paddy test; details: Oryza sativa, 360 h; 250 g ai/ha, Flood; visual rating on scale of 0 to 100 where 0 is no effect and 100 is complete control; 13 to 15 d after treatment; read-out: Plant response rating, Rice
In short: as §1

[3] = tested on: sedge, umbrella (small-flower umbrella sedge, Cyperus difformis); assay: Test B flooded paddy test; details: Cyperus difformis, 360 h; 250 g ai/ha, Flood; visual rating on scale of 0 to 100 where 0 is no effect and 100 is complete control; 13 to 15 d after treatment; read-out: Plant response rating, Sedge, Umbrella
In short: as §1

[4] = tested on: blackgrass (Alopecurus myosuroides); assay: Test A greenhouse herbicide test, postemergence; details: for Plant response rating, Blackgrass: 0 to 100 scale where 0 is no effect and 100 is complete control
In short: (§2)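 Visual injury score, 0 (no effect) to 100 (complete control), versus untreated controls roughly 10 d after postemergence spray; plants at one- to two-leaf stage, 2 to 10 cm tall, in loam soil and sand, kept in greenhouse.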

[5] = tested on: galium (catchweed bedstraw, Galium aparine); assay: Test A greenhouse herbicide test, postemergence
In short: as §2

[6] = tested on: morningglory (Ipomoea coccinea); assay: Test C greenhouse herbicide test, pre- and postemergence
In short: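 Seeds sown in loam–sand blend treated preemergence; plants in peat-based medium sprayed postemergence at 2–18 cm (1- to 4-leaf stage); chemicals in non-phytotoxic solvent with surfactant. Greenhouse 13–15 d, then visual rating versus controls on 0–100 scale (0 no effect, 100 complete control).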

[7] = tested on: chickweed (common chickweed, Stellaria media); assay: Test C greenhouse herbicide test, postemergence
Text: (§3) At the same time, plants selected from these crop and weed species and also chickweed (common chickweed, Stellaria media), kochia (Kochia scoparia), and oat, wild (wild oat, Avena fatua), were planted in pots containing Redi-Earth® planting medium (Scotts Company, 14111 Scottslawn Road, Marysville, Ohio 43041) comprising spaghnum peat moss, vermiculite, wetting agent and starter nutrients and treated with postemergence applications of test chemicals formulated in the same manner. Plants ranged in height from 2 to 18 cm (1- to 4-leaf stage) for postemergence treatments. Treated plants and controls were maintained in a greenhouse for 13 to 15 d, after which time all species were compared to controls and visually evaluated. Plant response ratings, summarized in Table C, are based on a scale of 0 to 100 where 0 is no effect and 100 is complete control. A dash (-) response means no test result.

kochia (Kochia scoparia) = assay: Test C greenhouse herbicide test, postemergence
Text: as §3

[8] = tested on: oat, wild (wild oat, Avena fatua); assay: Test C greenhouse herbicide test, postemergence
Text: as §3

[9] = 500 g ai/ha, 0 to 100 scale, 0 is no effect, 100 is complete control
[10] = 125 g ai/ha, 0 to 100 scale where 0 is no effect and 100 is complete control
[11] = Postemergence, 31 g ai/ha, 0 to 100 scale (0 no effect, 100 complete control)
[12] = Postemergence, 125 g ai/ha, scale 0 to 100, 0 is no effect, 100 is complete control
[13] = Postemergence, 250 g ai/ha, scale 0 to 100, 0 no effect, 100 complete control, 13 to 15 d
[14] = postemergence, 62 g ai/ha, scale 0 to 100, 0 no effect, 100 complete control
[15] = Preemergence, 31 g ai/ha, scale 0 to 100, 0 is no effect, 100 is complete control
[16] = Preemergence, 62 g ai/ha, scale 0 to 100, 0 is no effect, 100 is complete control
[17] = Preemergence, 125 g ai/ha, scale 0 to 100, 0 is no effect, 100 is complete control
[18] = Preemergence, 250 g ai/ha, scale 0 to 100, 0 no effect, 100 complete control
[19] = 500 g ai/ha, visual rating after approx. 10 d, 0 to 100 scale (0 no effect, 100 complete control)
[20] = Postemergence, 31 g ai/ha, scale 0 to 100 (0 no effect, 100 complete control)

SMILES	Plant response rating, Blackgrass ([4]; 125 g ai/ha)	Blackgrass plant response rating [4, 9]	Plant response rating, Galium [5, 10]	Plant response rating, Morningglory [6, 12]	Plant response rating, Morningglory [6, 13]	Morningglory plant response rating [6, 14]	Chickweed plant response rating [7, 11]	Plant response rating, Chickweed [7, 12]	Plant response rating, Chickweed [7, 13]	Chickweed plant response rating [7, 14]	Plant response rating, Kochia (kochia (Kochia scoparia); [12])	Plant response rating, Kochia (kochia (Kochia scoparia); [13])	Kochia plant response rating (kochia (Kochia scoparia); [14])	Plant response rating, Oat, Wild [8, 12]	Plant response rating, Oat, Wild [8, 13]	Plant response rating, Morningglory [6, 15]	Plant response rating, Morningglory [6, 16]	Plant response rating, Morningglory [6, 17]	Morningglory plant response rating [6, 18]	Plant response rating, Galium [5, 19]	further results
Cc1nn(C)c(=O)c(-c2c(C)oc3cccc(C)c23)c1O [Compound 8, 4-(2,4-dimethyl-3-benzofuranyl)-5-hydroxy-2,6-dimethyl-3(2H)-pyridazinone]	–	–	–	–	–	–	–	–	–	–	–	–	–	–	–	–	–	–	–	–	pest or weed control at 250 g/ha [1]: 30%; pest or weed control at 250 g/ha [2]: 20%; plant injury at 250 g/ha (rice (Oryza sativa)): 0%; pest or weed control at 250 g/ha [3]: 70%
Cc1ccc2oc(C)c(-c3c(OC(=O)C(C)(C)C)c(C)nn(C)c3=O)c2c1 [Compound 17, 5-(2,5-dimethyl-3-benzofuranyl)-1,6-dihydro-1,3-dimethyl-6-oxo-4-pyridazinyl 2,2-dimethylpropanoate]	–	–	–	–	–	–	–	–	–	–	–	–	–	–	–	–	–	–	–	–	pest or weed control at 125 g/ha ([4]; Alopecurus myosuroides, post-emergence, 240 h, 125 g ai/ha, visual rating after approx. 10 d, 0 to 100 scale (0 no effect, 100 complete control), read-out: Plant response rating, Blackgrass): 10%; pest or weed control at 500 g/ha ([4]; Alopecurus myosuroides, post-emergence, 240 h, 500 g ai/ha, 0 to 100 scale, 0 is no effect, 100 is complete control, read-out: Blackgrass plant response rating): 40%; pest or weed control at 125 g/ha ([5]; Galium, post-emergence, 240 h, 125 g ai/ha, visual rating after approx. 10 d, 0 to 100 scale (0 no effect, 100 complete control), read-out: Plant response rating, Galium): 50%; pest or weed control at 500 g/ha ([5]; Galium, post-emergence, 240 h, 500 g ai/ha, 0 to 100 scale, 0 is no effect, 100 is complete control, read-out: Galium plant response rating): 60%; pest or weed control at 250 g/ha [1]: 0%; pest or weed control at 250 g/ha [2]: 0%; plant injury at 250 g/ha (rice (Oryza sativa)): 0%; pest or weed control at 250 g/ha [3]: 0%
CCC(=O)Oc1c(C)nn(C)c(=O)c1-c1c(C)ccc2ccccc12 [Compound 78]	30	80	80	65	65	40	30	70	80	60	85	90	70	60	60	–	–	–	–	–	Galium plant response rating [5, 9]: 100; Morningglory plant response rating [6, 11]: 20; Kochia plant response rating (kochia (Kochia scoparia); [11]): 45; Oat, Wild plant response rating [8, 11]: 35; Oat, Wild plant response rating [8, 14]: 50
COC(=O)Oc1c(C)nn(C)c(=O)c1-c1c(C)sc2ccc(C)cc12 [Compound 80]	80	80	90	100	98	100	90	95	98	95	90	90	90	90	95	85	90	90	98	–	Galium plant response rating [5, 9]: 90; Morningglory plant response rating [6, 11]: 100; Kochia plant response rating (kochia (Kochia scoparia); [11]): 90; Oat, Wild plant response rating [8, 11]: 90; Oat, Wild plant response rating [8, 14]: 90
COC(=O)Oc1cnn(C)c(=O)c1-c1c(C)sc2ccccc12 [Compound 97]	90	90	100	30	30	40	0	15	60	0	70	85	0	5	10	25	30	20	30	100	Oat, Wild plant response rating [8, 14]: 5
CCCC(=O)Oc1c(C)nn(C)c(=O)c1-c1c(C)sc2ccc(C)cc12 [Compound 105]	80	90	100	100	100	–	–	98	100	95	95	100	–	90	90	85	90	100	95	100	Plant response rating, Morningglory [6, 20]: 100; Plant response rating, Chickweed [7, 20]: 90; Plant response rating, Kochia (kochia (Kochia scoparia); [20]): 95; Plant response rating, Oat, Wild [8, 20]: 60
CCCC(=O)Oc1c(C)nn(C)c(=O)c1-c1c(CC)sc2ccc(C)cc12 [Compound 107]	80	90	100	98	100	–	–	95	98	90	90	90	–	40	35	80	85	95	98	100	Plant response rating, Morningglory [6, 20]: 95; Plant response rating, Chickweed [7, 20]: 90; Plant response rating, Kochia (kochia (Kochia scoparia); [20]): 70; Plant response rating, Oat, Wild [8, 20]: 20
CC(=O)Oc1c(C)nn(C)c(=O)c1-c1c(C)sc2ccc(Cl)cc12 [Compound 108]	80	90	100	98	100	–	–	95	98	90	95	100	–	90	90	80	90	98	98	100	Plant response rating, Morningglory [6, 20]: 98; Plant response rating, Chickweed [7, 20]: 90; Plant response rating, Kochia (kochia (Kochia scoparia); [20]): 90; Plant response rating, Oat, Wild [8, 20]: 80
